{"source": "patent US10000783B2", "about": "“Steviol glucosyltransferases and genes encoding the same” (SUNTORY HOLDINGS LIMITED, priority 2012, dated 2018)", "molecules": {"B1": {"name": "UGT91D1: known stevia glucosyltransferase, GENBANK Accession No. AY345980 (protein, UniProt Q6VAA8 1-485, looked up)", "UDP-glycosyltransferase 91D1": "MYNVTYHQNSKAMATSDSIVDDRKQLHVATFPWLAFGHILPFLQLSKLIAEKGHKVSFLSTTRNIQRLSSHISPLINVVQLTLPRVQELPEDAEATTDVHPEDIQYLKKAVDGLQPEVTRFLEQHSPDWIIYDFTHYWLPSIAASLGISRAYFCVITPWTIAYLAPSSDAMINDSDGRTTVEDLTTPPKWFPFPTKVCWRKHDLARMEPYEAPGISDGYRMGMVFKGSDCLLFKCYHEFGTQWLPLLETLHQVPVVPVGLLPPEIPGDEKDETWVSIKKWLDGKQKGSVVYVALGSEALVSQTEVVELALGLELSGLPFVWAYRKPKGPAKSDSVELPDGFVERTRDRGLVWTSWAPQLRILSHESVCGFLTHCGSGSIVEGLMFGHPLIMLPIFCDQPLNARLLEDKQVGIEIPRNEEDGCLTKESVARSLRSVVVENEGEIYKANARALSKIYNDTKVEKEYVSQFVDYLEKNARAVAIDHES"}, "B2": {"name": "UGT91D-like3: novel stevia glucosyltransferase, amino acid sequence SEQ ID NO: 2 (protein, listed as Stevia rebaudiana)", "chain": "MYNVTYHQNSKAMATSDSIVDDRKQLHVATFPWLAFGHILPYLQLSKLIAEKGHKVSFLSTTRNIQRLSSHISPLINVVQLTLPRVQELPEDAEATTDVHPEDIPYLKKASDGLQPEVTRFLEQHSPDWIIYDYTHYWLPSIAASLGISRAHFSVTTPWAIAYMGPSADAMINGSDGRTTVEDLTTPPKWFPFPTKVCWRKHDLARLVPYKAPGISDGYRMGLVLKGSDCLLSKCYHEFGTQWLPLLETLHQVPVVPVGLLPPEIPGDEKDETWVSIKKWLDGKQKGSVVYVALGSEVLVSQTEVVELALGLELSGLPFVWAYRKPKGPAKSDSVELPDGFVERTRDRGLVWTSWAPQLRILSHESVCGFLTHCGSGSIVEGLMFGHPLIMLPIFGDQPLNARLLEDKQVGIEIPRNEEDGCLTKESVARSLRSVVVEKEGEIYKANARELSKIYNDTKVEKEYVSQFVDYLEKNARAVAIDHES"}, "B3": {"name": "UGT91D2e: prior art glucosyltransferase (Patent Document 3), SEQ ID NO: 32, short by the 12 amino acids (protein, listed as Stevia rebaudiana)", "chain": "MATSDSIVDDRKQLHVATFPWLAFGHILPYLQLSKLIAEKGHKVSFLSTTRNIQRLSSHISPLINVVQLTLPRVQELPEDAEATTDVHPEDIPYLKKASDGLQPEVTRFLEQHSPDWIIYDYTHYWLPSIAASLGISRAHFSVTTPWAIAYMGPSADAMINGSDGRTTVEDLTTPPKWFPFPTKVCWRKHDLARLVPYKAPGISDGYRMGLVLKGSDCLLSKCYHEFGTQWLPLLETLHQVPVVPVGLLPPEIPGDEKDETWVSIKKWLDGKQKGSVVYVALGSEVLVSQTEVVELALGLELSGLPFVWAYRKPKGPAKSDSVELPDGFVERTRDRGLVWTSWAPQLRILSHESVCGFLTHCGSGSIVEGLMFGHPLIMLPIFGDQPLNARLLEDKQVGIEIPRNEEDGCLTKESVARSLRSVVVEKEGEIYKANARELSKIYNDTKVEKEYVSQFVDYLEKNARAVAIDHES"}}, "key": {"UGT91D-like3": {"tested_on": "UGT91D-like3", "test": "Assay for enzyme activity of UGT91D-like3 on glycosyl acceptor substrates, LC-MS analysis", "assay_type": "biochemical, stevia", "details": "for product formation on reaction of the glycosyl acceptor substrate with UGT91D-like3: 2 mM UDP-glucose, 0.1 mM glycosyl acceptor substrate, potassium phosphate buffer pH 7.0, 30° C., an hour, LC-MS", "protocol": "(§1) Standard conditions for the enzyme reaction were as follows: A reaction solution (2 mM UDP-glucose, 0.1 mM glycosyl acceptor substrate, 100 mM potassium phosphate buffer (pH 7.0) and 25 μl of purified UGT91D-like3 enzyme solution) was prepared in distilled water to become 50 μl, and reacted at 30° C. for an hour. LC-MS analysis was performed for 5 μl of the enzyme reaction solution under the following conditions.\nColumn: Waters Sunfire C18 3.5 um […]\nMoving phase: A: MilliQ Water (+0.05% formic acid), B: MeCN\nGradient: linear density gradient from 15% to 55% in B density (20 mins.)\nSteviolmonoside (peak B) was prepared by reacting UGT85C2 and steviol (peak A), and the steviolmonoside was reacted with UGT91D-like3. […] This peak was identified as steviolbioside based on the retention time and mass fragmentation pattern. […] It was confirmed that UGT91D-like3 had the activity of forming steviolbioside (peak C) by glucosylation of steviolmonoside (peak B)."}, "[1]": {"details": "reported in the prior art (Non-Patent Document 2); cited from earlier work"}, "[2]": {"test": "Comparison in relative enzyme activity between recombinant UGT proteins, rubusoside as substrate", "assay_type": "biochemical, stevia", "details": "for relative enzyme activity (amount of stevioside produced divided by amount of protein): glucosylation activity of UGT91D2e made 100%", "protocol": "as §1\nAs given below, the Escherichia coli expression construct of UGT91D2e was prepared, and the enzyme activities of UGT91D2e and UGT91D-like3 were evaluated by the same manner as in EXAMPLES 3 and 4.\nThe enzyme activities were compared between the purified proteins of UGT91D-like3 and UGT91D2e expressed in Escherichia coli. Using rubusoside as substrate, the comparison was made under the same enzyme reaction conditions and analysis conditions as in EXAMPLE 4. A relative enzyme activity was calculated by dividing the amount of stevioside produced by the amount of the protein provided for the reaction."}}, "data": [{"molecule": "C=C1C[C@@]23CC[C@H]4[C@@](C)(CCC[C@@]4(C)C(=O)O)[C@@H]2CC[C@]1(O[C@@H]1O[C@H](CO)[C@@H](O)[C@H](O)[C@H]1O)C3", "note": "[steviolmonoside]", "values": [{"measurement": "product formation on reaction of the glycosyl acceptor substrate with UGT91D-like3", "setting": "UGT91D-like3", "result": "a new product (peak C) was detected"}]}, {"molecule": "C=C1C[C@@]23CC[C@H]4[C@@](C)(CCC[C@@]4(C)C(=O)O)[C@@H]2CC[C@]1(O)C3", "note": "[steviol]", "values": [{"measurement": "product formation on reaction of the glycosyl acceptor substrate with UGT91D-like3", "setting": "UGT91D-like3", "result": "no product was detected"}]}, {"molecule": "O=c1ccn([C@@H]2O[C@H](COP(=O)(O)OP(=O)(O)O[C@H]3OC[C@@H](O)[C@H](O)[C@H]3O)[C@@H](O)[C@H]2O)c(=O)[nH]1", "note": "[UDP-xylose]", "values": [{"measurement": "use as sugar donor by UGT91D-like3", "setting": "UGT91D-like3", "result": "did not use UDP-xylose as the sugar donor"}]}, {"molecule": "C=C1C[C@@]23CC[C@H]4[C@@](C)(CCC[C@@]4(C)C(=O)O[C@@H]4O[C@H](CO)[C@@H](O)[C@H](O)[C@H]4O)[C@@H]2CC[C@]1(O[C@@H]1O[C@H](CO)[C@@H](O)[C@H](O)[C@H]1O)C3", "note": "[rubusoside]", "values": [{"measurement": "product formation on reaction of the glycosyl acceptor substrate with UGT91D-like3", "setting": "UGT91D-like3", "result": "gave a new peak E"}]}, {"molecule": "C=C1C[C@@]23CC[C@H]4[C@@](C)(CCC[C@@]4(C)C(=O)O)[C@@H]2CC[C@]1(O[C@@H]1O[C@H](CO)[C@@H](O)[C@H](O)[C@H]1O[C@@H]1O[C@H](CO)[C@@H](O)[C@H](O)[C@H]1O)C3", "note": "[steviolbioside]", "values": [{"measurement": "product formation on reaction of the glycosyl acceptor substrate with UGT91D-like3", "setting": "UGT91D-like3", "result": "any new product was not detected"}]}, {"molecule": "B1", "values": [{"measurement": "activity for steviolmonoside", "setting": "[1]", "result": "no activity"}]}, {"molecule": "B2", "values": [{"measurement": "relative enzyme activity per protein amount higher than UGT91D2e", "setting": "[2]", "result": 67, "unit": "%"}, {"measurement": "relative enzyme activity (amount of stevioside produced divided by amount of protein)", "setting": "[2]", "result": 167, "unit": "%"}]}, {"molecule": "B3", "values": [{"measurement": "relative enzyme activity (amount of stevioside produced divided by amount of protein)", "setting": "[2]", "result": 100, "unit": "%"}]}]}
